Values of other authors, collected in patent US20040185170A1, “Method for coating drug-containing particles and formulations and dosage units formed therefrom” (priority 2003, published 2004).

details: coating material; from CRC Handbook of Chemistry and Physics, 63rd Edition

Structure (SMILES) | ΔHvap (heat of vaporization)
CCCCCCCCCC(=O)O [Capric acid] | 19,372.6 g cal mol^−1
CCCCCCCCCCCCCCCCO [Cetyl alcohol] | 14,483.4 g cal mol^−1
CCCCCCCCCCCCCC(=O)O [Myristic acid] | 18,380.1 g cal mol^−1
CCCCCCCC/C=C\CCCCCCCC(=O)O [Oleic acid] | 20,326.7 g cal mol^−1
CCCCCCCCCCCCCCCC(=O)O [Palmitic acid] | 17,603.6 g cal mol^−1
CCCCCCCCCCCCCCCCCC(=O)O [Stearic acid] | 19,306.6 g cal mol^−1
CCCCCCCCCCCCC(=O)O [Tridecanoic acid] | 19,214.8 g cal mol^−1

Other lines, results leading:

ΔHvap (heat of vaporization) | Structure (SMILES)
16,585.3 g cal mol^−1 | CCCCCCCCCCCC(=O)O [Lauric acid]
14,853.5 g cal mol^−1 | CCCCCCCCCCCC(=O)OC [Methyl laurate]
16,051.0 g cal mol^−1 | CCCCCCCCCCCCCC(=O)OC [Methyl myristate]
17,003.5 g cal mol^−1 | CCCCCCCCCCCCCCCC(=O)OC [Methyl palmitate]

details: normal atmospheric pressure

temperature at which it slowly volatilizes | Structure (SMILES)
90-100 °C | CCCCCCCCCCCCCCCCCC(=O)O [Stearic acid]
